{
  "source": "patent US20050042209A1",
  "about": "“MUC1 extracellular domain and cancer treatment compositions and methods derived therefrom” (priority 2000, published 2005)",
  "key": {"[1]": {"test_system": "MUC1", "settings": "MUC1-positive cells", "procedure": "Cell Culture: Human MCF-7 breast carcinoma and HeLa cervical carcinoma cella (obtained form the ATCC, Manassas, Va.) were grown in DMEM (high glucose; Mediatech, Cellgrow) supplemented with 10% heat-inactivated fetal calf serum (FCS) and 2 mM L-glutamate.\n(§4) Immunoblot analysis: Cells were lysed in ice-cold lysis buffer (20 mM Tris-HCl, pH 8.0, 150 mM NaCl, 1% Triton-X-100, 1 mM phenylsulfonyl fluoride, 1 mM DTT, 10 μgm/ml aprotinin) for 30 min. Lysates were cleared by centrifugation for 20 min. at 4° C. as described (Yin et al, 2001). Proteins were separated by SDS-PAGE, transferred to nitrocellulose and probed with anti-DF3/MUC1 (Kufe, U.S. Pat. No. 5,506,34) or anti-β-actin (Sigma). The antigen-antibody complexes were visualized by enhanced chemiluminescence (ECL; Amersham Life Sciences).\nCDDO downregulates MUC1 expression: MUC1-positive cells were treated with CDDO at concentrations of 1, 3 and 5 μM."}, "[2]": {"test_system": "MUC1 transcripts", "settings": "MCF-7 cells", "procedure": "Reverse transcription-polymerase chain reaction (RT-PCR): Total cellular RNA was extracted in Triazol, dissolved in RNAase-free water and incubated for 10 min. at 55° C. MUC1-specific primers (5′-[sequence]-3′ and 3′-[sequence]-5′) were designed to span a region within the genomic DNA that contains two introns and result in amplification of a 489-bp fragment from RNA and a 783-bp fragment from genomic DNA. RNA-specific primers for human β-actin were used as a control. The RNA was reverse transcribed and amplified using SuperScript One-Step RT-PCR with Platinum Taq (GIBCO-BRL Gaithersburg, Md.). Amplified fragments were analyzed by electrophoresis in 2% agarose gels.\nTo determine whether MUC1 expression is decreased at the mRNA level , RT-PCR was performed on MCF-7 cells treated with CDDO and the derivatives. […] Whereas CDDO induces apoptosis of diverse cell types, we assessed viability of MCF-7 cells under the same experimental conditions."}, "[3]": {"test_system": "intracellular ROS", "settings": "MCF-7 cells, compared to control", "procedure": "Measurement of ROS levels: Cells were incubated with 10 mM DCF-DA Sigma) for 15 min. at 37° C. to assess ROS-mediated oxidation of the fluorescent compound DCF (LeBel et al., 1992). Fluorescence of oxidized DCF was measured at an excitation wavelength of 480 nm and an emission wavelength of 525 nm using a flow cytometer (Beckton Dickerson, Lincoln Park, N.J.).\nAs a control, cells were incubated with NAC, a scavenger of ROS."}, "[4]": {"test_system": "β-actin", "assay": "β-actin expression after CDDO", "settings": "5 μM", "procedure": "as §4"}, "[5]": {"test_system": "MUC1 DF3 antigen", "assay": "DF3 antigen levels by immunoblot after NM-3", "assay_type": "cell-based, human", "protocol": "MCF-7 cells were treated with NM-3 (2-(8-hydroxy-6-methoxy-1-oxo-1 H-2-benzopyran-3-yl)propionic acid) at 100-400 μg/ml for 48 hr. DF3 antigen levels were visualized by immunoblot analysis with DF3 MAb (Kufe, U.S. Pat. No. 5,506,343, herein incorporated by reference).\nA decrease in the intracellular levels of DF3 antigen of NM-3 treated cells relative to non-treated cells was observed. […] To determine whether NM-3 impaired the extracellular localization of the MUC1 DF3 antigen, the antigen levels in cell culture medium supernatants and on MCF-7 cells after NM-3 treatment were investigated. The levels of DF3 antigen were reduced in both localizations."}, "[6]": {"test_system": "epidermal growth factor receptor (EGF-R)", "assay": "EGF-R expression after NM-3", "assay_type": "cell-based, human", "settings": "MCF-7, ZR-75-1 and BT-20 cell lines", "protocol": "To determine whether NM-3 inhibits the expression of cellular surface proteins as well, the level of epidermal growth factor receptor (EGF-R) expression after NM-3 treatment was tested on MCF-7, ZR-75-1 and BT-20 cell lines."}, "[7]": {"test_system": "MUC1", "assay": "Western blot of MUC1 after siRNA transfection", "assay_type": "cell-based, human", "settings": "siRNA 0.2 micromolar", "text": "Cell Culture: Human MCF-7 breast cancer cells were maintained in DMEM supplemented with 10% heat inactivated fetal bovine serum (FBS) and 1% penicillin-streptomycin mixture. Human A549 non-small cell lung cancer cells were maintained in RPMI1640 medium supplemented with 10% FBS and 1% penicillin-streptomycin mixture.\n(§1) siRNAs: Five different double stranded anti-MUC1 siRNAs were designed: one against the target sequence SEQ ID NO: 63, i.e., […], with sense and antisense strands as shown in SEQ ID NO: 64 and SEQ ID NO: 65 respectively (hereinafter siRNA #1); one against the target sequence SEQ ID NO: 42, i.e., […], with sense and antisense strands as shown in SEQ ID NO: 43 and SEQ ID NO: 44 respectively (hereinafter siRNA #2); one against the target sequence SEQ ID NO: 21, i.e., […], with sense and antisense strands as shown in SEQ ID NO: 22 and SEQ ID NO: 23 respectively (hereinafter siRNA #3); one against the target sequence SEQ ID NO: 66, i.e., […], with sense and antisense strands as shown by SEQ ID NO: 67 and SEQ ID NO: 68 respectively (hereinafter siRNA #4); and one against target sequence SEQ ID NO: 69, i.e., […], with sense and antisense strands as shown by SEQ ID NO: 70 and SEQ ID NO: 71 respectively (hereinafter siRNA #5). A control siRNA was designed against the scrambled target SEQ ID NO: 72 with sense and antisense strands as shown by SEQ ID NO: 73 and SEQ ID NO: 74 respectively. Each RNA sense oligonucleotide (50 μM) was combined with equal volume of antisense oligonucleotide (50 μM) in an annealing buffer (20 mM KCl, 6 mM HEPES-KOH, pH 7.5, 0.2 mM MgCl2). The solution was incubated for 1 min at 90° C. to denature secondary structure, and placed at 37° C. for 1 hour to anneal the complementary strands. The subsequent double stranded RNAs were used as the anti-MUC1 siRNA.\nTransfection: Cells (1-3×10^5 cells/well) were plated in 6-well plates in growth medium without antibiotics, and incubated overnight. After washing cells once with Opti-MEM I (Invitrogen), 800 μL of fresh Opti-MEM I and 200 μL of the Reagent (Invitrogen) were added to the cultured cells. Four hours later, 300 μL of FBS was added to the cultured cells.\nWestern Blot Analysis: Cell were passed a day before transfection. MUC1 siRNA (0.2 micromolar) was added with oligofectamine to cells in 0% FBS. Four hours later serum was added to a final concentration of 10%. After various time intervals (48 h, 72 h and 96 h), cells were washed and total cell lysates were prepared. Proteins were separated from cell lysates by SDS-PAGE, transferred to nitrocellulose and analyzed by immunoblotting with anti-DF3 antibodies."}, "[8]": {"test_system": "MUC1 RNA", "assay": "RT-PCR of MUC1 RNA after siRNA transfection", "assay_type": "cell-based, human", "settings": "FIG. 5", "text": "as §1\nRT-PCR: Total RNA was extracted and purified from cultured cells using RNAzol B according the manufacturer's instructions. The RNA was quantified by determining absorbance at 260 nm. One μg of total RNA from each sample was reverse transcribed into cDNA using Thermoscript reverse transcriptase (Invitrogen) in a volume of 20 μL. The cDNA product was amplified by PCR using Platinum Taq DNA polymerase (Invitrogen) and specific primers for MUC1 and beta-actin as an internal control. The sequences of primers used were as follows; • MUC1 (forward, 5′-[…]-3′; reverse, 5′-[…]-3′) and beta-actin (forward, 5′-[…]-3′; reverse, 5′-[…]-3′).\nThe reaction was performed using the following program: 94° C. for 2 min, 29 cycles (25 cycles for beta-actin) at 94° C. for 2 min, 48° C. for 1 min, 72° C. for 30s and then additional extension step of 72° C. for 10 min. The PCR products were separated on a 2% agarose gel, stained with ethidium bromide and photographed under UV light."}, "[9]": {"test_system": "A549 cells", "assay": "Apoptosis assay (Annexin V-FITC/PI) in A549 cells", "assay_type": "cell-based, human", "settings": "FIG. 7", "protocol": "(§2) Cell culture: Human non-small cell lung cancer A549 cells were grown in RPMI1640 medium supplemented with 10% fetal bovine serum (FBS), 100 units/ml of penicillin and 100 μg/ml of streptomycin, respectively.\nTransfection with siRNA: Cells (3×10^5 cells/well) were plated in 6-well plates in growth medium without antibiotics, and incubated overnight. […]\n(§3) Treatment of Cells with cisplatinum (CDDP): At 72 hr post transfection of siRNAs, 10 μM CDDP was added to the cells in fresh culture medium. After 48 hr of CDDP exposure cells were trypsinized and analyzed for MUC1 expression and apoptosis as described below.\nApoptosis assay.: A549 cells were initially stained for MUC1 expression using the DF3 monoclonal antibody (Kufe, U.S. Pat. No. 5,506,343, herein incorporated by reference). […] The amount of DF3 staining was then measured using a biotinylated goat anti-mouse secondary antibody (diluted 1:200 in staining buffer) and streptavidin-conjugated phycoerythrin (diluted 1:50 in staining buffer). After fluorescent staining for MUC1 expression, apoptosis was determined by staining cells with Annexin V-FITC and propidium iodide (PI). […] Using a flow cytometer, (EPICS XL-MCL, Coulter Corp), the amount of MUC1 expressing cells were determined using the FL2 detector, annexin V-FITC staining was measured in the FL1 detector and propidium iodide staining was measured in the FL3 detector. […]"}, "[10]": {"test_system": "A549 cells", "assay": "Proliferation of A549 cells", "assay_type": "cell-based, human", "settings": "transfection of siRNA; FIG. 8", "protocol": "as §2\nTransfection with siRNA: Cells (3×10^5 cells/well) were plated in 6-well plates in growth medium without antibiotics, and incubated overnight. Cells were then transfected with MUC1 siRNAs, siRNA #1, i.e., one against the target sequence SEQ ID NO: 63, i.e., […] with sense and antisense strands as shown in SEQ ID NO: 64 and SEQ ID NO: 65 respectively; and siRNA #2, i.e., one against the target sequence SEQ ID NO: 42, i.e., […] with sense and antisense strands as shown in SEQ ID NO: 43 and SEQ ID NO: 44 respectively, and one control siRNA directed towards the non-specific gene target […] using Oligofectamine reagent (Invitrogen) according to the manufacturer's instructions. After 24 hr of transfection, the medium was changed to complete medium containing antibiotics.\nas §3"}},
  "note": "Like-named read-outs stand apart in the source and are kept apart here. d = 2'-deoxy (DNA); r = 2'-OH (RNA)",
  "data": [
    {"molecule": "CC1(C)CC[C@]2(C(=O)O)CC[C@]3(C)[C@H](C(=O)C=C4[C@@]5(C)C=C(C#N)C(=O)C(C)(C)[C@@H]5CC[C@]43C)[C@@H]2C1", "note": "[CDDO]", "values": [
      {"measurement": "MUC1 protein (immunoblot)", "setting": "[1]; 5 μM", "result": "decreased levels"},
      {"measurement": "MUC1 protein (immunoblot)", "setting": "[1]; 1 or 3 μM at 24 hr", "result": "little if any effect"},
      {"measurement": "MUC1 transcripts (RT-PCR)", "setting": "[2]", "result": "decrease"},
      {"measurement": "ROS (oxidation of DCF)", "setting": "[3]", "result": "detectable increases"},
      {"measurement": "β-actin gene expression", "setting": "[4]", "result": "no apparent effect"}
    ]},
    {"molecule": "COc1cc(O)c2c(=O)oc(C(C)C(=O)O)cc2c1", "note": "(stereo not drawn) [NM-3, 2-(8-hydroxy-6-methoxy-1-oxo-1 H-2-benzopyran-3-yl)propionic acid]", "values": [
      {"measurement": "levels of DF3 antigen in cell culture medium supernatants and on MCF-7 cells", "setting": "[5]; MCF-7 cells after NM-3 treatment", "result": "reduced"},
      {"measurement": "intracellular levels of DF3 antigen", "setting": "[5]; MCF-7 cells, 100-400 μg/ml for 48 hr, relative to non-treated cells", "result": "decrease"},
      {"measurement": "EGF-R expression", "setting": "[6]", "result": "no detectable changes"}
    ]},
    {"molecule": "siRNA #2: double stranded anti-MUC1 siRNA, target SEQ ID NO: 42, sense SEQ ID NO: 43, antisense SEQ ID NO: 44 (sense GGUACCAUCAAUGUCCACGTT; antisense CGUGGACAUUGAUGGUACCTT; sugars from the 5' end r19 d2, backbone not given here)", "values": [
      {"measurement": "MUC1 expression at the protein level (immunoblot)", "setting": "[7]; A549 cells, FIG. 5", "result": "downregulate MUC1 expression"},
      {"measurement": "MUC1 expression at the protein level (immunoblot)", "setting": "[7]; MCF-7 cells, FIG. 5, FIG. 6", "result": "downregulate MUC1 expression"},
      {"measurement": "MUC1 expression at the RNA level (RT-PCR)", "setting": "[8]; A549 cells", "result": "downregulate MUC1 expression"},
      {"measurement": "MUC1 expression at the RNA level (RT-PCR)", "setting": "[8]; MCF-7 cells", "result": "downregulate MUC1 expression"},
      {"measurement": "percentage of apoptotic cells", "setting": "[9]; A549 cells transfected with siRNA, relative to controls", "result": "increase"},
      {"measurement": "percentage of apoptotic cells, combination", "setting": "[9]; A549 cells, siRNA 72 hr then 10 μM CDDP 48 hr", "result": "more than additively enhances"},
      {"measurement": "proliferation of A549 cells", "setting": "[10]", "result": "decreased the proliferation"}
    ]}
  ]
}
